Measurements published in patent US12269821B2, “Discovery of novel first in class nature-inspired compounds targeting the mitochondrial function and pharmaceutical composition thereof” (University of Sharjah, priority 2018, dated 2025).
Entries after “also recorded” stand apart in the source; their conditions may differ.

Experiments:
[1] = test system: isolated T cells; assay: Activation induced proliferation of isolated T cells, Cytopainter flow cytometry; type: cell-based, C57BL/6J mice; conditions: 2f
Protocol: (§1) Spleen and lymph nodes were collected from C57BL/6J mice and stored in RPMI medium on ice until further processing. Further procedures were performed using a laminar flow hood. Single cell suspensions were created by shearing the organs between two microscopy slides. Cell suspensions were passed through a 70 μm cell strainer to exclude remaining tissue chunks. Cells were washed in PBS and centrifuged at 300 g for 5 min at 4° C. During the preparation of splenic single cell suspension, erythrocytes were removed by incubating the cells for 5 min at rt in RBC lysis buffer followed by extensive washing in PBS. Cells were resuspended in RPMI medium and cell count was determined. Lymphocytes were kept on ice until further use.
T cell was enriched from the splenocytes by negative selection using magnetic bead separation (Pan T cell isolation kit II, mouse, #130-095-130, Miltenyi) achieving more than 90% purity. The cells were kept in RPMI medium until further use.
(§2) A total 17×10^6 cells were suspended in 15 mL Krebs Ringer buffer (with HEPES, 1 g L^−1 glucose, 1 mM pyruvate), supplemented with 30 μL of Cytopainter blue stock solution (500×) (#ab176726, Abcam) and incubated for 30 min at 37° C. to let the CFSE analog accumulate in the cells. The remaining Cytopainter reagent that was not incorporated into the cells was quenched by addition of 10 mL FCS and incubated for 5 min at rt. Another 25 mL of PBS were added and cells were centrifuged at 300 g for 5 min at rt. The cells were then suspended in 12.75 mL of complete RPMI culture medium. 2×10^5 cells in a volume of 150 μL were added to the wells of 96 well plates. The cytopainter-loaded cells were supplemented with the test substances, or DMSO as a negative control and oligomycin as a positive control.
Cytopainter loaded T cells were stimulated using two different approaches. Either T cells stimulated by plate bound anti-CD3 antibodies (coated at 1 μg/mL) and soluble anti-CD28 antibodies (at a final concentration of 0.2 μg mL^−1), or in separate replicates by addition of the cytokines IL-2 (50 ng mL^−1) and IL-7 (10 ng mL^−1) to stimulate T cells proliferation and survival.
(§3) Cell proliferation was then analyzed by assessing the fluorescence intensity of cytopainter in the cells by flow cytometry. Reduced intensity of cytopainter dye indicates cells that have undergone cell division. Data was analyzed using FlowJo v10.4.2. Proliferation parameters were derived using the FlowJo Proliferation Tool. The Expansion index determines the fold-expansion of the overall culture. The Division index expresses the average number of cell divisions that a cell in the original population has undergone and also includes the cells that have never divided.

[2] = test system: B220+ B lymphocytes; assay: Activation induced proliferation of lymphocytes (PMA/Ionomycin), Cytopainter flow cytometry, B cells; type: cell-based, C57BL/6J mice; conditions: stimulation with PMA/Ionomycin; for division index of B-cells: FIG. 2c; for expansion index of B-cells: FIG. 2d
Protocol: as §1, §2
(§4) Cytopainter loaded lymphocytes were stimulated with PMA (15 ng mL^−1) and Ionomycin (0.5 μg mL^−1). All cells were incubated for 60 h at 37° C., 5% CO2. Lymphocytes were then washed with 2% FBS in PBS, supplemented with anti-CD16/CD32 antibodies (to block unspecific Fc-receptor binding) and incubated for 10 min at 4° C. Subsequently cells were incubated for 20 min at 4° C. with anti-CD3 antibodies conjugated to FITC (clone: 145-2C11, #11-0031-82, eBioscience) and anti-B220 antibodies conjugated to PerCP-Cy5.5 (clone:RA3-6B2, #45-0452-82, eBioscience) to label T cells and B cells, respectively. Cells were subsequently washed with 2% FBS in PBS analyzed.
as §3

[3] = test system: Hepa1-6 cell line; assay: BrdU incorporation/cell proliferation assay; type: cell-based; conditions: for suppression of cells proliferation: Hepa1-6, exposure 48 h, FIG. 1d
Protocol: (§5) The tested compounds were dissolved in DMSO at a concentration of 100 mM and further diluted in PBS supplemented with 10% (v/v) DMSO. When necessary dissolution was enhanced by incubation at 50° C. and sonication at maximum output for 10 min. Hepa1.6 cell line (#CRL-1830, ATCC) was cultured in DMEM culture medium containing 1 g L^−1 glucose, 10% fetal bovine serum, 2 mM glutamine, 100 U mL^−1 Penicillin and 100 μg mL^−1 Streptomycin and 30 μM oleic acid. Cells were seeded at a density of 20000 cells per well in 96 well plates and incubated for several hours to allow the cells to attach at 37° C. with 5% CO2. Cells were then supplemented with the test substances at indicated concentrations (0.01-50 μM) and incubated for indicated time periods (24-48 h).
(§6) For all assays the tested substances were further diluted in 10% DMSO/PBS and added to the cells at the indicated concentrations with a final DMSO concentration of 0.01%. Negative vehicle controls were treated with 0.01% DMSO. Positive control was treated with 10 μM oligomycin or 10 μM FCCP (Carbonyl cyanide-4-(trifluoromethoxy) phenylhydrazone).
Cells were incubated for a total of 48 h with the tested substances. During the last 12 h the cells were supplemented with 200 μM BrdU (#ab126556, Abcam). After the incubation period cells were washed with PBS. Following that the cells fixed and permeabilized using the reagents of the kit and labeled for 1 h with anti-BrdU antibodies conjugated with peroxidase. After washing the fixed cells 5 times with PBS the wells were incubated with peroxidase substrate TMB. The reaction was stopped after 30 min. The signal intensity was measure at absorbance 450 nm. Results were normalized to controls samples treated with vehicle (0.01% DMSO, negative control) or 10 μM oligomycin.

[4] = test system: CD3+ T lymphocytes; assay: Activation induced proliferation of lymphocytes (PMA/Ionomycin), Cytopainter flow cytometry, T cells; type: cell-based, C57BL/6J mice; conditions: stimulation with PMA/Ionomycin; for division index of T-cells: FIG. 2a; for expansion index of T-cells: FIG. 2b
Protocol: as §1, §2, §4, §3

[5] = test system: Hepa1-6 cell line; assay: Cellular ATP content (CellTiter-Glo Assay); type: cell-based; conditions: Hepa1-6, exposure 24 h, FIG. 1a
Protocol: as §5
For all assays the tested substances were further diluted in 10% DMSO/PBS and added to the cells at the indicated concentrations with a final DMSO concentration of 0.01%. […]
Cells were treated for 24 h with the test substances at the indicated concentrations. The cellular ATP content was assessed using the CellTiter-Glo Assay (#G7571, Promega) as per the manufacturer's instructions. Luminescence was detected in a plate reader spectrophotometer. The results were normalized to the luminescence intensity measured in mock treated negative controls and the positive controls treated with 10 μM oligomycin.

[6] = test system: Hepa1-6 cell line; assay: Cellular redox potential (AlamarBlue); type: cell-based; conditions: Hepa1-6, 24 h, FIG. 1c
Protocol: as §5, §6
Cells were treated for 24 h with the test substances or controls ([…] DMSO, 10 μM FCCP and 10 μM oligomycin). […] Fluorescence was measured at ex/em: 550/590 nm. […]

[7] = test system: Hepa1-6 cell line; assay: Cytotoxicity (Pierce LDH Cytotoxicity Assay Kit); type: cell-based; conditions: Hepa1-6, FIG. 1e
Protocol: as §5, §6
Cytotoxicity was assessed using the Pierce LDH Cytotoxicity Assay Kit (#88953, Thermo Fisher). […] Absorbance was measure at 490 nm and background at 680 nm. […] Cytotoxicity was expressed as the percentage of maximum signal intensity observed in freshly lysed cells.

[8] = test system: Hepa1-6 cell line; assay: Mitochondrial membrane potential (ΔΨm), TMRE fluorophore; type: cell-based; conditions: FIG. 1b; for reduce ΔΨm: Hepa1-6, exposure 24 h; for Emax at 1 µM: Mus musculus, Hepa1-6, concentration of 1 μM, read-out: decrease of normalized ΔΨm, maximum response
Protocol: as §5, §6
Mitochondrial membrane potential (ΔΨm) was assessed using the tetramethylrhodamine (TMRE) fluorophore. The cells were incubated with the test substances for 24 h and then loaded with TMRE at a final concentration of 200 nM for 45 min at 37° C. Positive control wells were treated with 10 μM FCCP 30 min before loading the cells with TMRE. The medium was removed and the cells were washed with PBS and supplemented with fresh culture medium. Fluorescence intensity of TRME was immediately measured (ex/em: 545/580 nm) using a plate reader spectrophotometer. The results were normalized to the fluorescence intensity measured in mock treated negative controls and the positive controls treated with 10 μM FCCP.

[9] = stimulation with anti-CD3/CD28 antibodies, FIGS. 2e
[10] = stimulation with cytokines IL-2/IL-7, FIGS. 2e

Structure (SMILES)	activation-induced proliferation of isolated T-cells [1, 9]	activation-induced proliferation of isolated T-cells [1, 10]	division index of B-cells [2]	expansion index of B-cells [2]	suppression of cells proliferation [3]	division index of T-cells [4]	expansion index of T-cells [4]	deplete ATP production [5]	effect on redox potential [6]	cytotoxic necrosis [7]	reduce ΔΨm [8] [%]	Emax at 1 µM [8] [%]	rank in diminishing the proliferation of Hepa1-6 ([3]; Hepa1-6, 1d versus 1q)
C[C@]12CCC(=O)C[C@H]1N1CCc3c([nH]c4ccccc34)[C@@H]1CO2 [1q, (2aS,6aR,14bR)-2a-Methyl-3,4,6,6a,8,9,14,14b-octahydro-1H-benzo[5′,6′][1,4]oxazino[4′,3′:1,2]pyrido[3,4-k]indol-5(2aH)-one]	did not significantly affect	did not significantly affect	non-significant effects	non-significant effects	potent suppression	non-significant effects	non-significant effects	≤ 50%	increase; also recorded: strongly affected	without noticeable cytotoxic necrosis	77	90	
C[C@]12C=CC(=O)C[C@H]1N1CCc3c([nH]c4ccccc34)[C@@H]1CO2 [compound 1d, (2aS,6aR,14bR)-2a-Methyl-6,6a,8,9,14,14b-hexahydro-1H-benzo[5′,6′][1,4]oxazino[4′,3′:1,2]pyrido[3,4-b]indol-5(2 aH)-one]	did not significantly affect	did not significantly affect	non-significant effects	non-significant effects	potent suppression	non-significant effects	non-significant effects	up to 60%	increase; also recorded: strongly affected	without noticeable cytotoxic necrosis	82	82	most potent
